The results in this text go back to US20230031406A1, “COMPOUNDS AND COMPOSITIONS FOR TREATING CONDITIONS ASSOCIATED WITH NLRP ACTIVITY” (Novartis AG, priority 2018, published 2023).

Molecules are shown by their SMILES. Some results are limits rather than exact numbers.

The test system of the first test is PMA-differentiated THP-1 cells. Put plainly: IL-1β production in PMA-differentiated THP-1 cells stimulated with gramicidin (hTHP-1 assay containing 2% fetal bovine serum; Procedures 1 and 2). The conditions noted are these: Homo sapiens, THP-1, Table B1; 2% fetal bovine serum; class symbols; read-out: Average IC50 of compounds in hTHP-1 assay: hTHP-1 IC50. The format is cell-based, human. The method in brief: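 IL-1β release from PMA-differentiated THP-1 macrophage-like cells was triggered by 5 μM gramicidin for 2 h after 1 h compound exposure, then measured by HTRF.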
As to `CC(C)(O)c1ncc(S(N)(=O)=NC(=O)Nc2c3c(nc4c2CCC4O)CCC3)s1` (stereo not drawn) [Compound 178, N′-((3-hydroxy-1,2,3,5,6,7-hexahydrodicyclopenta[b,e]pyridin-8-yl)carbamoyl)-2-(2-hydroxypropan-2-yl)thiazole-5-sulfonimidamide], the IC50 was in the range of 5000 to 30000 nM.

Turning to `CC(C)(O)c1csc(S(N)(=O)=NC(=O)Nc2c3c(nc4c2CCC4(C)C)CCC3)c1` (stereo not drawn) [Compound 127, N′-((3,3-dimethyl-1,2,3,5,6,7-hexahydrodicyclopenta[b,e]pyridin-8-yl)carbamoyl)-4-(2-hydroxypropan-2-yl)thiophene-2-sulfonimidamide], the IC50 was in the range of 40 to 200 nM. The same measure, in the same setting: with `CC(C)c1ncc(F)c(C(C)C)c1NC(=O)N=S(N)(=O)c1cc(C(C)(C)O)cs1` (stereo not drawn) [Compound 148, N′-((5-fluoro-2,4-diisopropylpyridin-3-yl)carbamoyl)-4-(2-hydroxypropan-2-yl)thiophene-2-sulfonimidamide] the figure was 40 to 200 nM; with `CC(C)(O)c1ccc(S(N)(=O)=NC(=O)Nc2c3c(nc4c2CCC4)CCC3)s1` (stereo not drawn) [Compound 149, N′-((1,2,3,5,6,7-hexahydrodicyclopenta[b,e]pyridin-8-yl)carbamoyl)-5-(2-hydroxypropan-2-yl)thiophene-2-sulfonimidamide], 200 to 1000 nM. On to `Cc1nc(C(C)(C)O)ccc1S(N)(=O)=NC(=O)Nc1c2c(nc3c1CCC3)CCC2` (single isomer, unassigned) [Compound 157b, (R) or (S)-N′-((1,2,3,5,6,7-hexahydrodicyclo-penta[b,e]pyridin-8-yl)carbamoyl)-6-(2-hydroxypropan-2-yl)-2-methylpyridine-3-sulfonimidamide], for which the half-maximal inhibitory concentration (IC50) is 5000 to 30000 nM.

Staying with this test, now noted: Homo sapiens, THP-1, Table B1; 2% fetal bovine serum; numeric bounds; read-out: Average IC50 of compounds in hTHP-1 assay: hTHP-1 IC50.
For `CC(C)c1cc(NC(=O)N=S(N)(=O)c2cc(C(C)(C)O)cs2)c2c(n1)CCC2` (stereo not drawn) [Compound 182, 4-(2-hydroxypropan-2-yl)-N′-((2-isopropyl-6,7-dihydro-5H-cyclopenta[b]pyridin-4-yl)carbamoyl)thiophene-2-sulfonimidamide], the concentration for half-maximal inhibition (IC50) is over 14000 nM.

Still in this test, the particulars now being: Homo sapiens, THP-1, Table B2; 2% fetal bovine serum; class symbols; read-out: hTHP-1 IC50.
For the compound `Cc1c(C(F)F)nc2c(c1NC(=O)N=S(N)(=O)c1cnc(C(C)(C)O)s1)CCC2` (stereo not drawn) [Compound 647, N′-((2-(difluoromethyl)-3-methyl-6,7-dihydro-5H-cyclopenta[b]pyridin-4-yl)carbamoyl)-2-(2-hydroxypropan-2-yl)thiazole-5-sulfonimidamide], the IC50 is 1000 to 5000 nM. In the case of `C[C@@](O)(CO)c1cc(F)c(S(N)(=O)=NC(=O)Nc2c3c(nc4c2CCC42CC2)CCC3)s1` (stereo partly drawn) [Compound 716b], the IC50 was 200 to 1000 nM.

On to `CCn1ccc(S(N)(=O)=NC(=O)Nc2c3c(nc4c2CCC4(C)C)CCC3)n1` (stereo not drawn) [Compound 603, N′-((3,3-dimethyl-1,2,3,5,6,7-hexahydrodicyclopenta[b,e]pyridin-8-yl)carbamoyl)-1-ethyl-1H-pyrazole-3-sulfonimidamide], for which the half-maximal inhibitory concentration (IC50) lay in the range of 40 to 200 nM. With `Cc1cn(C(C)C)nc1S(N)(=O)=NC(=O)Nc1c2c(nc3c1CCC3)CCC2` (single isomer, unassigned) [Compound 687b, (R) or (S)-N′-((1,2,3,5,6,7-hexahydrodicyclopenta [b,e]pyridin-8-yl)carbamoyl)-1-isopropyl-4-methyl-1H-pyrazole-3-sulfonimidamide], the 50% inhibitory concentration (IC50) lay in the range of 5000 to 30000 nM. Take `CC1CCc2c1nc1c(c2NC(=O)N=S(N)(=O)c2cc(C(C)(C)O)n(-c3ccccc3)n2)CCC1` (single isomer, unassigned) [Compound 664b, (R) or (S)-5-(2-Hydroxypropan-2-yl)-N′-((3-methyl-1,2,3,5,6,7-hexahydrodicyclopenta [b,e]pyridin-8-yl)carbamoyl)-1-phenyl-1H-pyrazole-3-sulfonimidamide]: the IC50 is 1000 to 5000 nM.

Regarding `CC(C)(O)c1cc(F)c([S@](N)(=O)=NC(=O)Nc2cc(CC(F)(F)F)nc3c2CCC3)s1` [Compound 602b], the concentration for half-maximal inhibition (IC50) lay within 1000 to 5000 nM. Same read-out and setting: then `COCCOC[C@@](C)(O)c1ncc(S(N)(=O)=NC(=O)Nc2c3c(nc4c2CCC4(C)C)CCC3)s1` (stereo partly drawn) [Compound 736, N′-((3,3-dimethyl-1,2,3,5,6,7-hexahydrodicyclopenta [b,e]pyridin-8-yl)carbamoyl)-2-((R)-2-hydroxy-1-(2-methoxyethoxy)propan-2-yl)thiazole-5-sulfonimidamide], with 1000 to 5000 nM.

Staying with this test, now noted: Homo sapiens, THP-1, Table B2; 2% fetal bovine serum; numeric bounds; read-out: hTHP-1 IC50.
Regarding `Cc1c(C(F)F)nc2c(c1NC(=O)N=S(N)(=O)c1cnc(C(C)(C)O)s1)CCC2` (single isomer, unassigned) [Compound 647b, (S) or (R)-N′-((2-(difluoromethyl)-3-methyl-6,7-dihydro-5H-cyclopenta[b]pyridin-4-yl)carbamoyl)-2-(2-hydroxypropan-2-yl)thiazole-5-sulfonimidamide], the IC50 was over 30000 nM. On the same count and under the same terms, with `CC(C)(O)c1ncc(S(N)(=O)=NC(=O)Nc2c3c(nc4c2CCC4=O)CCC3)s1` (stereo not drawn) [Compound 711] the figure was over 30000 nM.

Staying with this test, now noted: Homo sapiens, THP-1, Table B3; hTHP-1 assay, 2% fetal bovine serum; class symbols; read-out: IC50.
On to `CCn1cc(F)c(S(N)(=O)=NC(=O)Nc2c3c(nc(C4CC4)c2C2CC2)CCC3)n1` (stereo not drawn) [Example 618, N′-((2,3-dicyclopropyl-6,7-dihydro-5H-cyclopenta[b]pyridin-4-yl)carbamoyl)-1-ethyl-4-fluoro-1H-pyrazole-3-sulfonimidamide], for which the IC50 fell in the range of 40 to 200 nM. The same measure, in the same setting: then `Cc1c(C(F)(F)F)nc2c(c1NC(=O)N=S(N)(=O)c1cc(CO)n(C(C)C)n1)CCC2` (single isomer, unassigned) [Example 719, (S) or (R)-5-(hydroxymethyl)-1-isopropyl-N′-((3-methyl-2-(trifluoromethyl)-6,7-dihydro-5H-cyclopenta[b]pyridin-4-yl)carbamoyl)-1H-pyrazole-3-sulfonimidamide], with 1000 to 5000 nM; and `NS(=O)(=NC(=O)Nc1c2c(nc3c1CCC31CC1)CCC2)c1ccn(CCO)n1` (stereo not drawn) [Example 622, 1-(2-Hydroxyethyl)-N′-((1′,5′,6′,7′-tetrahydro-2′H-spiro[cyclopropane-1,3′-dicyclopenta[b,e]pyridin]-8′-yl)carbamoyl)-1H-pyrazole-3-sulfonimidamide], with 1000 to 5000 nM. For the compound `CC1(C)CCc2c1nc1c(c2NC(=O)N=[S@@](N)(=O)c2cc([C@@](C)(O)CO)cs2)CCC1` [Example 653, (R)-4-((R)-1,2-dihydroxypropan-2-yl)-N′-((3,3-dimethyl-1,2,3,5,6,7-hexahydrodicyclopenta[b,e]pyridin-8-yl)carbamoyl) thiophene-2-sulfonimidamide], the IC50 is 40 to 200 nM.

The test is the same for the next values; noted with them: Homo sapiens, THP-1, Table B4; 2% fetal bovine serum; numeric bounds; read-out: hTHP-1 IC50.
For the compound `NS(=O)(=NC(=O)Nc1c2c(nc3c1CCC3)CCC2)c1nn(C(F)F)cc1F` (single isomer, unassigned) [Example 760, (S) or (R)-1-(difluoromethyl)-4-fluoro-N′-((1,2,3,5,6,7-hexahydrodicyclopenta[b,e]pyridin-8-yl)carbamoyl)-1H-pyrazole-3-sulfonimidamide], the concentration for half-maximal inhibition (IC50) was over 30000 nM.

The same test, now with this note: Table B1; 2% fetal bovine serum; class symbols; read-out: Average IC50 of compounds in hTHP-1 assay: hTHP-1 IC50.
As to `CC1CCc2c1nc1c(c2NC(=O)N=S(N)(=O)c2cc(C(C)(C)O)cs2)CCC1C` (stereo not drawn) [Compound 131, N′-((3,5-dimethyl-1,2,3,5,6,7-hexahydrodicyclopenta[b,e]pyridin-8-yl)carbamoyl)-4-(2-hydroxypropan-2-yl)thiophene-2-sulfonimidamide], the half-inhibitory concentration (IC50) lay within 200 to 1000 nM. Still for that read-out and setting: then `CC1CCc2c1nc1c(c2NC(=O)N=S(N)(=O)c2ccn(C(C)C)n2)CCC1` (single isomer, unassigned) [Compound 129ba, (R,S) or (R,R)-1-isopropyl-N′-((3-methyl-1,2,3,5,6,7-hexa-hydrodicyclo-penta[b,e]pyridin-8-yl)carbamoyl)-1H-pyrazole-3-sulfonimidamide], with 1000 to 5000 nM.

Staying with this test, now noted: Table B2; 2% fetal bovine serum; class symbols; read-out: hTHP-1 IC50.
For the compound `CCc1cc(F)c(S(N)(=O)=NC(=O)Nc2c3c(nc4c2CC[C@H]4C)CCC3)s1` (single isomer, unassigned) [Compound 720b, (S) or (R)-5-Ethyl-3-fluoro-N′-(((R)-3-methyl-1,2,3,5,6,7-hexahydrodicyclopenta[b, e]pyridin-8-yl)carbamoyl)thiophene-2-sulfonimidamide], the IC50 lay in the range of 5000 to 30000 nM. The same measure, in the same setting: then `Cc1c(C(C)C)nc2c(c1NC(=O)N=S(N)(=O)c1cnc(C(C)(C)O)s1)CCC2` (single isomer, unassigned) [Compound 650b, (S) or (R)-2-(2-Hydroxypropan-2-yl)-N′-((2-isopropyl-3-methyl-6,7-dihydro-5H-cyclopenta[b]pyridin-4-yl)carbamoyl)thiazole-5-sulfonimidamide], with 5000 to 30000 nM; and `Cc1cc(S(N)(=O)=NC(=O)Nc2c3c(nc4c2CCC4)CCC3)sc1C(C)(C)O` (single isomer, unassigned) [Compound 692a, (S) or (R)-N′-((1,2,3,5,6,7-hexahydrodicyclopenta [b,e]pyridin-8-yl)carbamoyl)-5-(2-hydroxypropan-2-yl)-4-methylthiophene-2-sulfonimidamide], with 5000 to 30000 nM.

The test is the same for the next values; noted with them: Table B3; hTHP-1 assay, 2% fetal bovine serum; class symbols; read-out: IC50.
With `CCn1ccc(S(N)(=O)=NC(=O)Nc2c3c(nc(C4CC4)c2C2CC2)CCC3)n1` (single isomer, unassigned) [Example 700, (S) or (R)-N′-((2,3-dicyclopropyl-6,7-dihydro-5H-cyclopenta[b]pyridin-4-yl)carbamoyl)-1-ethyl-1H-pyrazole-3-sulfonimidamide], the IC50 lay within 5000 to 30000 nM.

Regarding `CCn1ccc(S(N)(=O)=NC(=O)Nc2c3c(nc4c2CCC42CC2)CCC3)n1` (single isomer, unassigned) [Example 687, (R) or (S)-1-Ethyl-N′-((1′,5′,6′,7′-tetrahydro-2′H-spiro[cyclopropane-1,3′-dicyclopenta[b,e]pyridin]-8′-yl)carbamoyl)-1H-pyrazole-3-sulfonimidamide], the concentration for half-maximal inhibition (IC50) was in the range of 200 to 1000 nM.

For orientation: IC50 means the point on the concentration scale where inhibition reaches its midpoint.
